Results from patent US9206103B2, “Materials and methods for reduction of protein tau and treatment of neurodegenerative diseases” (UNIVERSITY OF SOUTH FLORIDA, priority 2010, dated 2015).

Assays:
tau [1] = experiment: Western blot of tau levels in HeLa cells stably overexpressing tau (HeLa-C3); assay type: cell-based; conditions: for tau levels, effect of chirality: HeLa-C3, similar concentrations of enriched and racemic myricanol
Protocol: (§1) HeLa cells stably expressing VS-tagged 4R0N tau were maintained under G418 selection in Opti-Mem plus 10% FBS (complete media; Invitrogen) as previously described (Jinwal et al. (2009) J Neurosci 29, 12079-12088). IMR32 cells were maintained in Opti-mem plus 10% FBS and 2% 200 mM L-glutamine (Cellgro, Mediatech, Inc, Herndon, Va.). IMR32, M17, and H4 cells were maintained in Opti-mem plus 10% FBS and 2% 200 mM L-glutamine (Cellgro, Mediatech, Inc., Herndon, Va.). All cells were treated as indicated and harvested as previously described (Jinwal et al. (2009) J Neurosci 29, 12079-12088).
(§2) Protein levels were determined by using the Peirce BCA kit. Western blotting was performed by running SDS-PAGE, followed by transfer onto Immobilon-P (Millipore), as previously described (Dickey et al. (2005) Curr Alzheimer Res 2, 231-23; Koren et al. (2010) J. Bio. Chem. 285, 2498-2505).
(§3) To assess the effects of the aqueous bayberry extract on overexpressed and endogenous tau levels, a HeLa cell line stably transfected with tau (HeLa-C3) and a human IMR32 cell line derived from hippocampal neurons were treated with the bayberry extract at indicated doses for four hours. The hippocampus is the region first affected by tau deposition in Alzheimer's disease.
Briefly, the EtOH extract was subjected to acid hydrolysis to enrich the aglycone component of the extract, and was then fractionated via medium pressure liquid chromatography (MPLC). The bayberry crude extract was separated into 8 UV-active fractions by MPLC) (FIG. 4A). The MPLC extraction method was designed to identify UV active flavonoids such as myricetin).
To investigate the effect of chirality on anti-tau activity, HaLa-C3 cells were treated with the isolated (+)-αR,11S-myricanol (86% ee) and commercially available “racemic” myricanol (actually 9% ee) at the indicated concentrations.

tau [2] = experiment: Western blot of endogenous tau levels in IMR32 cells; assay type: cell-based, human; conditions: IMR32 hippocampus-derived cells
Protocol: as §1, §2, §3

tau [3] = experiment: Ex-vivo murine brain slice cultures, Western blot of tau levels; assay type: cell-based, mice; conditions: murine brain slices
Protocol: HeLa cells stably overexpressing tau (HeLa-C3; FIG. 2A) and IMR32 cells with endogenous tau levels (FIG. 2B) were treated for 4 hrs with aqueous bayberry extract at 0, 21, 35, 70 μg/ml (0, 0.3, 0.5, and 1.0% by volume). […] Tau levels are shown as a percentage of vehicle-treated cells ±SD. […] Treatments on whole brain murine slice cultures were performed in duplicate at doses of 0, 9, 18, 35, 70, 105, 140 μg/ml (0, 0.125, 0.25, 0.5, 1.0, and 2.0% by volume) of the bayberry extract. Each point in the graph (FIG. 2E) to the right represents the average tau reductions (n=8 slices) for all four mice at the given doses relative to the average vehicle ±SD. *p<0.05 by student's t test.
4 non-transgenic 5-month-old mice were decapitated and their brains were quickly removed. 400 μm coronal sections were made using a vibratome as previously described (Jinwal et al. J. Neurosci. 2009, 29, 12079-12088; Qiu et al. J. Neurosci. 2006, 26, 12943-12955; Mirnikjoo et al. J. Biol. Chem. 2001, 276, 10888-10896. NP100572Z). […]

[4] = Lactate dehydrogenase release assay for myricanol; assay type: cell-based
Hsp70 ATPase = conditions: previously shown; cited from earlier work

Compound: COc1c2cc(c(O)c1OC)CCCC[C@@H](O)CCc1ccc(O)c-2c1 (racemic) [(+/−)-myricanol, reference compound]
- tau levels, effect of chirality (tau [1]): no activity

Compound: COc1c2cc(c(O)c1OC)CCCC[C@H](O)CCc1ccc(O)c-2c1 [(+)-αR,11S-myricanol]
- EC50 (tau [1]; HeLa-C3, Western blot, read-out: EC50 for reduction of tau levels): 35 µM
- reduction of tau levels (tau [1]; HeLa-C3, overexpressed tau): potently reduced tau levels
- tau levels, effect of chirality (tau [1]): reduced significantly
- reduction of tau levels (tau [2]): potently reduced tau levels
- reduction of tau levels (tau [3]): potently reduced tau levels

Compound: COc1c2cc(c(O)c1OC)CCCC[C@@H](O)CCc1ccc(O)c-2c1 [myricanol]
- tau reduction after pre-treatment with autophagy inhibitor (tau [1]; HeLa-C3, NH4Cl 20 mM pre-treatment): abrogated tau reductions
- tau reduction after pre-treatment with proteasomal inhibitor (tau [1]; HeLa-C3, epoxomicin 0.3 μM pre-treatment): abrogated tau reductions
- reduction of intracellular tau levels compared with myricetin (tau [1]; comparison stated in the description): more effectively reduces intracellular tau levels than myricetin
- toxicity by lactate dehydrogenase release [4]: little toxicity

Compound: O=c1c(O)c(-c2cc(O)c(O)c(O)c2)oc2cc(O)cc(O)c12 [myricetin]
- inhibition of Hsp70 ATPase activity (Hsp70 ATPase): inhibitor of Hsp70 ATPase activity
